Results: patent US8541649B2, “Brassinosteroid regulated kinases (BRKs) that mediate brassinosteroid signal transduction and uses thereof” (priority 2008, dated 2013)

Assays:
[1] = test system: wild type plants; experiment: Hypocotyl and root growth assay; type: in vivo, Arabidopsis thaliana; conditions: wild type plants grown in the light
Description: The det2-1 and bzr1-1D mutants are in Arabidopsis thaliana Columbia ecotype background, and bri1-5 is in the WS ecotype. For hypocotyl and root growth assay, seedlings were grown on vertical phytoagar plate containing ^1/2 MS medium and 1% sucrose (pH 5.7) in the dark for 4 days or under continuous light for 7 days. Confocal microscopy and BiFC analysis were performed according to Gampala et al. (Gampala et al., Dev Cell 13, 177 (August, 2007)).
Arabidopsis seeds were surface sterilized by first soaking in 70% ethanol plus 0.1% Triton X-100 for 15 min followed by soaking in 96% ethanol for another 10 mins. Sterilized seeds were air dried in the hood and sowed on agar plate of Murashige and Skoog (MS) medium or MS plate plus BRZ or Brassinolide. The seeds were incubated at 4° C. for 3 days to synchronize germination and then grown for 4 days in dark or 7 days under continuous light before taking pictures for measurement. For measurement of hypocotyls or root growth, the plates were first scanned using a image scanner at a resolution of 300 dpi, and the images were input into computer software Image J to measure the root or hypocotyl length.

[2] = target: T1, BRI1-GFP and BRK1-myc (Arabidopsis thaliana, UniProt O22476); experiment: Co-immunoprecipitation of BRI1 with BRK1; type: in vivo; conditions: 100 nM brassinolide for 30 min; microsomal proteins immunoprecipitated with anti-GFP antibodies; plants co-expressing BRK1-myc and BRI1-GFP (FIG. 2D)
T1 construct: expressed in transfected cells; host or cells: transgenic Arabidopsis plants (rosette leaves, microsomal fraction)
T1 sequence (O22476 24-1196): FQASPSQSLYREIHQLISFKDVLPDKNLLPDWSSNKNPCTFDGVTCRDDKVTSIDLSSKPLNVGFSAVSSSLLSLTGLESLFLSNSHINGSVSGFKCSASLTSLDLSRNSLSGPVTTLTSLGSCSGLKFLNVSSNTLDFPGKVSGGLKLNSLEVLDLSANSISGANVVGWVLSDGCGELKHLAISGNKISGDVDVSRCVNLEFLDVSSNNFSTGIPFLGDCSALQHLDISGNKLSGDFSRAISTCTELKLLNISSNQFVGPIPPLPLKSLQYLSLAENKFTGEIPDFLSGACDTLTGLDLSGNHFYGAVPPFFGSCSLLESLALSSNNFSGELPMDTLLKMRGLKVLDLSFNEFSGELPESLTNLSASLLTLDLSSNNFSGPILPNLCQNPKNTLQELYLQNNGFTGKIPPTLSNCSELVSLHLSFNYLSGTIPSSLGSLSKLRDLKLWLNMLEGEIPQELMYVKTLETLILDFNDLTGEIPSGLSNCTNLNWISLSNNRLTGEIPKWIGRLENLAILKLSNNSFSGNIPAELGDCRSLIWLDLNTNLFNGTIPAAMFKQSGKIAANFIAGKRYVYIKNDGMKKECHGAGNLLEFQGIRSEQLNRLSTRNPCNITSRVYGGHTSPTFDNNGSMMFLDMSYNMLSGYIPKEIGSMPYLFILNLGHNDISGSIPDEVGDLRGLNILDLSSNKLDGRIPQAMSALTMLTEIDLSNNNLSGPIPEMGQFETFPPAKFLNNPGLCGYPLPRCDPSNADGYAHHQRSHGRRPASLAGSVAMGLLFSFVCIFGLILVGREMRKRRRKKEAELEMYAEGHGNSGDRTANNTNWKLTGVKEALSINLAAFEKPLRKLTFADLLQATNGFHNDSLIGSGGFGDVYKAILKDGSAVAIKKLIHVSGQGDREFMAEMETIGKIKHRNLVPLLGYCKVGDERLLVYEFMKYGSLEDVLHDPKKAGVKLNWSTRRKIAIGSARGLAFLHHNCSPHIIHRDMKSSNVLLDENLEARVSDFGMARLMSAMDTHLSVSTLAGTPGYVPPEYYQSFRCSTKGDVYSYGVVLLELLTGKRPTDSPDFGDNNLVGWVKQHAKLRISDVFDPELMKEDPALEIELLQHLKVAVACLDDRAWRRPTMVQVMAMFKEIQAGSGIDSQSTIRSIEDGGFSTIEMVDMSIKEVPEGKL
T1 sequence (Q94F62 26-615 partner): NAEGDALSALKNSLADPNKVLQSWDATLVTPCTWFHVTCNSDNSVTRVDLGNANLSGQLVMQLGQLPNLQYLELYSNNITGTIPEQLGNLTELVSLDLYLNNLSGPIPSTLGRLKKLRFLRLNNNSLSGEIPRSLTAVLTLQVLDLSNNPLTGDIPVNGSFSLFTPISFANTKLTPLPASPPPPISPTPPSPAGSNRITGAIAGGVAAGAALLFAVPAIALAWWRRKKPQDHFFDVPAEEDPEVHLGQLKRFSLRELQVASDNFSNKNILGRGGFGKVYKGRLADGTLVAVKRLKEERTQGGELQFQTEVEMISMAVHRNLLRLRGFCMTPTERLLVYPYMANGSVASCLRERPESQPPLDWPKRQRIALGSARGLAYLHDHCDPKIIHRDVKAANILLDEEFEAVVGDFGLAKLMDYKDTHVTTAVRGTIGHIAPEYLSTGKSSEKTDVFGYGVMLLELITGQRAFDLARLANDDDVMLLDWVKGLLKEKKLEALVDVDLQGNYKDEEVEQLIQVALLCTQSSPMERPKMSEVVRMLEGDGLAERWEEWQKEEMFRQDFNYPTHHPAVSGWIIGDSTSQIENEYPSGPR
Description: FIGS. 2A-2D show BRK1 is a substrate of BRI1. FIGS. 2A and 2B show BRI1 phosphorylates serine230 of BRK1 in vitro. […] YFP fluorescence images of N. benthamiana leaf epidermal cells co-transformed with the indicated constructs. […] Arabidopsis plants expressing BRK1-myc only (lanes 1 and 4) or co-expressing BRK1-myc and BRI1-GFP (lanes 2, 3, 5, 6) were treated with 100 nM brassinolide (BL+) or mock solution (BL−) for 30 min. Microsomal proteins (lanes 1 to 3) were immunprecipitated with anti-GFP antibodies (lanes 4 to 6), and the immunoblot was probed using anti-GFP antibodies or anti-myc antibodies.
All procedures were performed at 4° C. Rosette leaves of 3-week-old Arabidopsis plants were homogenized with mortar and pestle in the grinding buffer (20 mM HEPES, pH 7.5, 40 mM KCl, 250 mM sucrose, 5 mM MgCl2 and protein inhibitors) at a ratio of 3 mL buffer per gram of tissue. Homogenate was filtered through 2 layers of Miracloth (CalBiochem, La Jolla, Calif.), and centrifuged at 10,000 g for 10 minutes. The supernatant was further centrifuged at 100,000 g for 60 min to pellet the microsomal fraction. Microsomes were re-suspended in 0.5 mL grinding buffer and sonicated for 10 sec. Triton X-100 was added to a final concentration of 1%. After mixing, the extracts were centrifuged at 20,000 g for 10 min. […] Samples were analyzed by SDS-PAGE and immunoblotting.

`CC(C)[C@H](C)[C@@H](O)[C@H](O)[C@@H](C)[C@H]1CC[C@H]2[C@@H]3COC(=O)[C@H]4C[C@H](O)[C@H](O)C[C@]4(C)[C@H]3CC[C@]12C` [Brassinolide] was tested, and the hypocotyl elongation [1] was “increases hypocotyl elongation”, the root growth [1] was “inhibits root growth” and the “amount of the co-immunoprecipitated BRK1-myc” value [2] was 46 % of the untreated sample.
